Data as given in PubChem BioAssay AID328 (DTP/NCI, 2004).
Values joined by “and” are separate entries in the source; they are usually repeats but may differ in a detail not shown here. Equal values may be shown once. Toxic doses and inconclusive results are not listed.

Tested on: BDF1 mice, P388 leukemia ip, median survival T/C
Assay: NCI In Vivo Anticancer Drug Screen. Data for tumor model P388 Leukemia (intraperitoneal) in B6D2F1 (BDF1) mice
Conditions: endpoint: median survival time, higher = longer survival
Outline: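 Survival ratio, drug arm over vehicle arm, in mice with a transplanted tumour.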

[1] = dose: 50.0 mg/kg/injection, schedule: Q01DX009 (ip), vehicle: saline
[2] = dose: 100.0 mg/kg/injection, schedule: Q01DX009 (ip), vehicle: saline
[3] = dose: 200.0 mg/kg/injection, schedule: Q01DX009 (ip), vehicle: saline
[4] = dose: 25.0 mg/kg/injection, schedule: Q01DX009 (ip), vehicle: saline with Tween-80
[5] = dose: 50.0 mg/kg/injection, schedule: Q01DX009 (ip), vehicle: saline with Tween-80
[6] = dose: 50.0 mg/kg/injection, schedule: Q04DX003 (ip), vehicle: saline with Tween-80
[7] = dose: 100.0 mg/kg/injection, schedule: Q01DX009 (ip), vehicle: saline with Tween-80
[8] = dose: 100.0 mg/kg/injection, schedule: Q04DX003 (ip), vehicle: saline with Tween-80
[9] = dose: 200.0 mg/kg/injection, schedule: Q01DX009 (ip), vehicle: saline with Tween-80
[10] = dose: 200.0 mg/kg/injection, schedule: Q04DX003 (ip), vehicle: saline with Tween-80
[11] = dose: 400.0 mg/kg/injection, schedule: Q01DX009 (ip), vehicle: saline with Tween-80
[12] = dose: 400.0 mg/kg/injection, schedule: Q04DX003 (ip), vehicle: saline with Tween-80
[13] = dose: 100.0 mg/kg/injection, schedule: Q04DX003 (ip), vehicle: saline
[14] = dose: 400.0 mg/kg/injection, schedule: Q04DX003 (ip), vehicle: saline
[15] = dose: 25.0 mg/kg/injection, schedule: Q01DX009 (ip), vehicle: saline
[16] = dose: 50.0 mg/kg/injection, schedule: Q04DX003 (ip), vehicle: saline
[17] = dose: 200.0 mg/kg/injection, schedule: Q04DX003 (ip), vehicle: saline
[18] = dose: 25.0 mg/kg/injection, schedule: Q01DX009 (ip), vehicle: water
[19] = dose: 25.0 mg/kg/injection, schedule: Q04DX003 (ip), vehicle: water
[20] = dose: 50.0 mg/kg/injection, schedule: Q01DX009 (ip), vehicle: water
[21] = dose: 50.0 mg/kg/injection, schedule: Q04DX003 (ip), vehicle: water
[22] = dose: 100.0 mg/kg/injection, schedule: Q01DX009 (ip), vehicle: water

Structure (SMILES): NCCOCC(N)C(=O)O (stereo unspecified)
- T/C [1]: 109 % of control
- T/C [2]: 105 % of control
- T/C [3]: 98 % of control

Structure (SMILES): CN(C)C(=O)c1cccc(NCc2ccc3nc(N)nc(N)c3c2)c1
- T/C (dose: 3.12 mg/kg/injection, schedule: Q01DX009 (ip), vehicle: saline with Tween-80): 108 % of control
- T/C (dose: 6.25 mg/kg/injection, schedule: Q01DX009 (ip), vehicle: saline with Tween-80): 99 % of control
- T/C (dose: 12.5 mg/kg/injection, schedule: Q01DX009 (ip), vehicle: saline with Tween-80): 106 % of control
- T/C [4]: 99 % of control
- T/C [5]: 95 % of control and 108 % of control
- T/C [6]: 100 % of control
- T/C [7]: 91 % of control
- T/C [8]: 100 % of control
- T/C [9]: 101 % of control
- T/C [10]: 104 % of control
- T/C [11]: 94 % of control
- T/C [12]: 102 % of control

Structure (SMILES): Cc1ncc(CO)c(C2NOCc3nscc32)c1O (stereo unspecified)
- T/C (dose: 7.0 mg/kg/injection, schedule: Q01DX009 (ip), vehicle: Klucel (hydroxypropylcellulose) (HPC)): 95 % of control
- T/C (dose: 11.25 mg/kg/injection, schedule: Q01DX001 (ip), vehicle: saline): 104 % of control
- T/C (dose: 14.0 mg/kg/injection, schedule: Q01DX009 (ip), vehicle: Klucel (hydroxypropylcellulose) (HPC)): 95 % of control
- T/C (dose: 19.0 mg/kg/injection, schedule: Q04DX003 (ip), vehicle: saline): 95 % of control
- T/C (dose: 22.5 mg/kg/injection, schedule: Q01DX001 (ip), vehicle: saline): 104 % of control
- T/C (dose: 45.0 mg/kg/injection, schedule: Q01DX001 (ip), vehicle: saline): 100 % of control
- T/C (dose: 45.0 mg/kg/injection, schedule: Q04DX003 (ip), vehicle: saline): 90 % of control

Structure (SMILES): c1cc2c3c(c1)/C(=N\N=C1/CCN4CCCc5cccc1c54)CCN3CCC2
- T/C [5]: 104 % of control
- T/C [6]: 90 % of control
- T/C [7]: 104 % of control
- T/C [8]: 100 % of control
- T/C [9]: 104 % of control
- T/C [10]: 100 % of control

Structure (SMILES): CCCCNC(C)(C)C(SSSC(c1ccc(C(F)(F)F)cc1)C(C)(C)NCCCC)c1ccc(C(F)(F)F)cc1 (stereo unspecified)
- T/C [13]: 120 % of control
- T/C [14]: 120 % of control

Structure (SMILES): O=[N+]([O-])c1ccc(Cl)nc1
- T/C [9]: 95 % of control

Structure (SMILES): Nc1ccc(OCCNS(=O)(=O)c2cccc(S(=O)(=O)F)c2)c(Cl)c1
- T/C [15]: 107 % of control
- T/C [1]: 104 % of control
- T/C [16]: 103 % of control
- T/C [2]: 114 % of control
- T/C [13]: 103 % of control
- T/C [3]: 105 % of control
- T/C [17]: 103 % of control
- T/C [14]: 100 % of control

Structure (SMILES): CCOC(=O)C(C)(C(=O)OCC)c1ccccc1
- T/C [7]: 104 % of control
- T/C [8]: 115 % of control
- T/C [9]: 113 % of control
- T/C [10]: 110 % of control
- T/C [11]: 118 % of control
- T/C [12]: 115 % of control

Structure (SMILES): Cc1cccc2cc3c(ccc4ccccc43)c[n+]12
- T/C (dose: 1.0 mg/kg/injection, schedule: Q01DX009 (ip), vehicle: Klucel (hydroxypropylcellulose) (HPC)): 109 % of control
- T/C (dose: 2.0 mg/kg/injection, schedule: Q01DX009 (ip), vehicle: Klucel (hydroxypropylcellulose) (HPC)): 100 % of control
- T/C (dose: 4.0 mg/kg/injection, schedule: Q01DX009 (ip), vehicle: Klucel (hydroxypropylcellulose) (HPC)): 100 % of control
- T/C (dose: 8.0 mg/kg/injection, schedule: Q01DX009 (ip), vehicle: Klucel (hydroxypropylcellulose) (HPC)): 113 % of control

Structure (SMILES): C1CC[N-]CC1.C1CC[N-]CC1.C1CC[N-]CC1.C1CC[N-]CC1.[Pt+4]
- T/C (dose: 6.25 mg/kg/injection, schedule: Q01DX009 (ip), vehicle: saline): 110 % of control
- T/C (dose: 12.5 mg/kg/injection, schedule: Q01DX009 (ip), vehicle: saline): 100 % of control

Structure (SMILES): O=[N+]([O-])/C=C/c1ccc2ccccc2n1
- T/C (dose: 1.25 mg/kg/injection, schedule: Q01DX009 (ip), vehicle: saline with Tween-80): 103 % of control
- T/C (dose: 2.5 mg/kg/injection, schedule: Q01DX009 (ip), vehicle: saline with Tween-80): 92 % of control and 94 % of control
- T/C (dose: 5.0 mg/kg/injection, schedule: Q01DX009 (ip), vehicle: saline with Tween-80): 94 % of control and 110 % of control
- T/C (dose: 10.0 mg/kg/injection, schedule: Q01DX009 (ip), vehicle: saline with Tween-80): 94 % of control and 115 % of control
- T/C (dose: 12.5 mg/kg/injection, schedule: Q04DX003 (ip), vehicle: saline with Tween-80): 111 % of control
- T/C (dose: 20.0 mg/kg/injection, schedule: Q01DX009 (ip), vehicle: saline with Tween-80): 94 % of control
- T/C (dose: 25.0 mg/kg/injection, schedule: Q04DX003 (ip), vehicle: saline with Tween-80): 102 % of control

Structure (SMILES): C/C=C1\C(=O)OC23C=CC4C(C(=O)OC)C(O)OC(OC12)C43 (stereo unspecified)
- T/C (dose: 0.04 mg/kg/injection, schedule: Q01DX009 (ip), vehicle: saline): 95 % of control
- T/C (dose: 0.2 mg/kg/injection, schedule: Q01DX009 (ip), vehicle: saline): 100 % of control
- T/C (dose: 1.0 mg/kg/injection, schedule: Q01DX009 (ip), vehicle: saline + alcohol): 110 % of control

Structure (SMILES): O=C1C=CC(=O)c2c(O)c(CBr)c(CBr)c(O)c21
- T/C (dose: 3.12 mg/kg/injection, schedule: Q01DX009 (ip), vehicle: water): 96 % of control
- T/C (dose: 6.25 mg/kg/injection, schedule: Q01DX009 (ip), vehicle: water): 118 % of control
- T/C (dose: 6.25 mg/kg/injection, schedule: Q04DX003 (ip), vehicle: water): 105 % of control
- T/C (dose: 12.5 mg/kg/injection, schedule: Q01DX009 (ip), vehicle: water): 108 % of control
- T/C (dose: 12.5 mg/kg/injection, schedule: Q04DX003 (ip), vehicle: water): 105 % of control
- T/C [18]: 118 % of control
- T/C [19]: 100 % of control
- T/C [20]: 112 % of control
- T/C [21]: 107 % of control
- T/C [22]: 105 % of control

Structure (SMILES): O=C(c1c(F)c(F)c(F)c(F)c1F)N1CC1
- T/C [18]: 106 % of control
- T/C [19]: 104 % of control
- T/C [20]: 111 % of control
- T/C [21]: 91 % of control
- T/C [22]: 111 % of control
- T/C (dose: 100.0 mg/kg/injection, schedule: Q04DX003 (ip), vehicle: water): 106 % of control
- T/C (dose: 200.0 mg/kg/injection, schedule: Q01DX009 (ip), vehicle: water): 97 % of control
- T/C (dose: 200.0 mg/kg/injection, schedule: Q04DX003 (ip), vehicle: water): 106 % of control
- T/C (dose: 400.0 mg/kg/injection, schedule: Q01DX009 (ip), vehicle: water): 100 % of control
- T/C (dose: 400.0 mg/kg/injection, schedule: Q04DX003 (ip), vehicle: water): 100 % of control

Structure (SMILES): Cc1cc(NC(=O)NCc2ccc(N)cc2)ccc1S(=O)(=O)F
- T/C [15]: 97 % of control
- T/C [1]: 109 % of control
- T/C [16]: 102 % of control
- T/C (dose: 75.0 mg/kg/injection, schedule: Q01DX009 (ip), vehicle: saline): 115 % of control
- T/C [2]: 90 % of control and 124 % of control
- T/C [13]: 102 % of control
- T/C (dose: 150.0 mg/kg/injection, schedule: Q01DX009 (ip), vehicle: saline): 92 % of control
- T/C [3]: 106 % of control
- T/C [17]: 100 % of control
- T/C (dose: 400.0 mg/kg/injection, schedule: Q01DX009 (ip), vehicle: saline): 99 % of control
- T/C [14]: 97 % of control

Structure (SMILES): COc1ccccc1C(C#N)N1CCCN(C(C#N)c2ccccc2OC)C1c1cc(Cl)cc(Cl)c1O (stereo unspecified)
- T/C [5]: 95 % of control
- T/C [7]: 98 % of control
- T/C [9]: 98 % of control
- T/C [11]: 91 % of control

Structure (SMILES): COc1cccc2c1C(=O)c1c(O)c3c(c(O)c1C2=O)C[C@@](O)(/C(C)=N/NC(=O)c1ccc(Cl)c(Cl)c1)C[C@@H]3OC1CC(N)C(O)C(C)O1 (stereo partly specified)
- T/C (dose: 0.5 mg/kg/injection, schedule: Q01DX009 (ip), vehicle: water): 202 % of control
- T/C (dose: 1.0 mg/kg/injection, schedule: Q01DX009 (ip), vehicle: water): 234 % of control and 156 % of control
- T/C (dose: 2.0 mg/kg/injection, schedule: Q01DX009 (ip), vehicle: water): 295 % of control and 186 % of control
- T/C (dose: 4.0 mg/kg/injection, schedule: Q01DX009 (ip), vehicle: water): 295 % of control and 186 % of control

Structure (SMILES): CCCCNC1=CC(=O)CC(C)(C)C1
- T/C [1]: 105 % of control
- T/C [2]: 111 % of control
- T/C [3]: 107 % of control

Structure (SMILES): COc1cc2c(cc1O)C(=O)CCC(C(=O)O)=C2
- T/C [4]: 106 % of control
- T/C [5]: 111 % of control
- T/C [7]: 101 % of control
